Reference: patent US10197552B2, “Monitoring cell-to-cell interactions” (Oakland University, priority 2015, dated 2019)

What was measured:
Assay type in all cases: cell-based, human
[1] = tested on: adhesion of KG-1 cells to activated HUVECs; assay: QCM response to KG-1 cell binding on HUVECs activated with different TNF-α concentrations; settings: 25×10^4 KG-1 cells on HUVECs activated by TNF-α at different concentrations; FIGS. 12C, 12D
Description: (§1) Next, the EGM-2 medium was replaced by a medium containing 10% FBS and TNF-α with a specified concentration (ranging from 0 ng/ml to […]), allowing the HUVECs to suffer growth and activation up to 20 hours. After the concentration of HL-60 and KG-1 cells reached 5×10^6 cells mL^−1, they were collected from the medium by centrifugation at 1500 g for 5 minutes to remove IMDM, and were re-suspended with EGM-2 medium supplemented with 10% FBS. This was performed to reduce variations of the viscosity of the medium for measurements. The density of these suspension cells was determined with a hemacytometer.
Finally, 100 μL of the cell-suspending solution was added into the measuring chamber. The Δf0 and ΔR1 responses were simultaneously monitored for 22 hours.
These examples confirmed that AML cells adhere to activated HUVECs based on binding with E-selectin. It is possible that the extent of activation of HUVECs, which is closely related to TNF-α concentration, should have an influence on the binding of AML cells. FIGS. 12A and 12B show the QCM responses induced by the addition of KG-1 cells with the same concentration (i.e., 25×10^4) on activated HUVECs after stimulation of TNF-α with different concentrations. […]

[2] = tested on: HUVECs; assay: QCM monitoring of HUVEC activation by TNF-α, with microscope observation
Description: The gold QCM consists of a thin AT-cut quartz crystal wafer with a gold electrode on each side (9 MHz, non-polished with ˜1000 Å gold, geometric area is 0.28 cm^2, Beijing Chenjing Electronics Co., Ltd., China). The gold QCM was mounted between two biocompatible silicon O-rings to allow only one side of the gold electrode to be exposed to the liquid. The reaction chamber above the crystal was held with a 1 mL chlorinated polyethylene centrifugal tube. The device, being covered, was placed in a humidified CO2 incubator controlled at 5% CO2 and 37° C. to prevent evaporation from the culture holder.
An RQCM instrument (Maxtek Inc., USA) was used to simultaneously record resonant frequency (f0) and motional resistance (R1) of the QCM electrodes.
After being sterilized with 75% ethanol under UV light for 0.5 hours, the QCM culture-chamber was washed three times with PBS. Then, 500 μL of EGM-2 medium was added and the entire culture-chamber was put into the incubator. As soon as the QCM readout reached a stable baseline, 50 μL of EGM-2 medium containing freshly trypsinized 3×10^4 cells was added. All QCM measurements were performed in a static mode without stirring. The Δf0 and ΔR1 responses were simultaneously monitored in the process of cell attachment and growth in the next 24 hours.
as §1, with “hemacytometer. […]” for “hemacytometer.”

[3] = tested on: adhesion of AML cells (KG-1) to HUVECs; assay: Number of adherent AML cells on HUVECs in co-culture, flow cytometric analysis; settings: treated KG-1/HUVEC co-cultures as, in comparison to untreated controls; FIG. 15
Description: (§2) As illustrated throughout Example 1, acute myeloid leukemia (AML) cells mediate endothelial cell (EC) activation. In this Example, the effects of anti-inflammatories, namely thalidomide and lenalidomide, to prevent AML induced EC activation were tested. KG-1 cells were pre-treated with 100 μM thalidomide or 1 μM lenalidomide (half of total dose) for 1-hour. Co-cultures were then established by adding the pre-treated KG-1 cells (1×10^6 cells) to cultures containing HUVECs (˜80% confluence) with the addition of the second half of the total dose of the respective anti-inflammatories. After 24-hours, E-selectin expression on HUVECs was measured as a marker of EC activation using flow cytometry. Untreated (i.e., no anti-inflammatory added) co-cultures of KG-1 on HUVECs were used as controls. The results are shown in FIG. 14, where the + indicates whether the co-culture was the control, was treated with thalidomide, or was treated with lenalidomide.
It was determined whether thalidomide and lenalidomide were able to reduce EC activation mediated AML cell adhesion. Adherent cells were collected from treated (as described above) and control co-cultures, and the numbers of adherent AML cells in each population were enumerated based on flow cytometric analysis. […]

[4] = tested on: E-selectin expression on HUVECs; assay: E-selectin expression on HUVECs in KG-1 co-cultures, flow cytometry (marker of EC activation); settings: KG-1/HUVEC co-culture, 24 hours; KG-1 pre-treated 1 hour with 100 μM thalidomide or 1 μM lenalidomide (half of total dose), second half added to co-culture; vs untreated co-cultures; FIG. 14
Description: as §2

[5] = maximum reported concentration of TNF-α (range 0 to 400 ng ml^−1), 3×10^4 HUVECs on QCM gold electrode

Compound	QCM response shifts (|Δf0| and ΔR1 changes) on addition of KG-1 cells [1]	activation of HUVECs (shape-change, microscope images) ([2]; 40, 200 and 400 ng mL^−1 TNF-α, FIGS. 5B-5D)	frequency shifts in Stage IV as compared to those in Stage I [2, 5] [%]	resistance changes in Stage IV as compared to those in Stage I [2, 5] [%]	numbers of adherent AML cells [3]	E-selectin expression on HUVECs [4]
TNF-α	increased with enhancement of TNF-α concentrations in the range of 2 ng mL^−1-200 ng mL^−1	effectively induce the activation of HUVECs in a dose dependent manner	15	7		
O=C1CCC(N2C(=O)c3ccccc3C2=O)C(=O)N1 (centres unmarked) [thalidomide]					significantly reduce	significant reduction
Nc1cccc2c1CN(C1CCC(=O)NC1=O)C2=O (centres unmarked) [lenalidomide]					significantly reduce	significant reduction
